Measurements from paper PMC7293270 (Scientific Reports, 2020).
Like-named read-outs stand apart in the source and are kept apart here.

How the values were obtained:
[1] = Biliary excretion pharmacokinetics of Rho-123 after RT in freely moving rats; type: in vivo, Sprague-Dawley rats; details: for AUC(0-t) / Cmax / MRT / Tmax / clearance / half-life: Sprague-Dawley, rat, bile, iv, 0.2 mg/kg, biliary excretion; for half-life: read-out: t½
Experimental: A freely moving rat model was designed for the current study[21] (Fig. 1A). Experimental rats were anesthetized with 1 g/mL urethane and 0.1 g/mL α-chloralose (1 mL/kg by intraperitoneal [i.p.] injection), and polyethylene tubes were then implanted in the right jugular vein for intravenous (i.v.) fluid administration. The right jugular vein was catheterized for blood sampling. The catheter traversed the subcutaneous tissue and was fixed in the dorsal neck region. After surgery, the rats were placed in an experimental cage and allowed to recover for 1 day. During the recovery period, the rats were kept warm under a light. Then, the rats were anesthetized and immobilized on a board while undergoing CT for localization of the whole liver (conventional technique, Fig. 1B) or a central area of 1.5 × 1.5 cm (SBRT technique, Fig. 1C). […] An equal volume of methanol was added to 100-μL aliquots of bile and plasma sample specimens for deproteinization. The mixture was vortexed for 15 s and centrifuged at 12000 × g for 10 min.

P-gp = test: Rho-123 transport assay (flow cytometry) for P-gp activity with RT and NF-κB inhibitor SN50; type: cell-based; details: Huh-7, 20 μM Rho-123
Experimental: In brief, Huh-7 cells were seeded in a 6-well plate. RT0Gy, RT2Gy, or RT9Gy was applied. At 1 hr or 24 hr after RT, ketoconazole (a P-gp inhibitor), digoxin (a P-gp substrate) and DMSO were added to the corresponding wells and incubated at 37 °C. The existing medium was replaced with 20 μM Rho-123 solution and incubated for 1 hr. Then, the cells were analyzed (10000 cells/sample) to measure Rho-123 accumulation with a FACSCalibur flow cytometer (excitation (Ex) = 515 nm, emission (Em) = 545 nm; Becton Dickinson, San Jose, CA, USA). The data were analyzed with CellQuest software (Becton Dickinson, San Jose, CA, USA).
The peptide SN50 inhibits nuclear translocation of NF-κB. SN50M was used as a negative control. In brief, Huh-7 cells were pretreated with 20 μM SN50 or SN50M (Enzo Life Sciences, Inc., Farmingdale, NY, USA) for 1 hr and were then irradiated. At 1 hr or 24 hr after RT, the existing medium was replaced with 20 μM Rho-123 and incubated for 1 hr. The cells were analyzed (10000 cells/sample) to measure Rho-123 accumulation with a FACSCalibur flow cytometer (Ex = 515 nm, Em = 545 nm; Becton Dickinson, San Jose, CA, USA). The data were analyzed with CellQuest software (Becton Dickinson, San Jose, CA, USA).

[2] = RT2Gy, Rho-123 10 min later (concurrent)
[3] = RT2Gy, Rho-123 24 hr later (sequential)
[4] = RT9Gy, Rho-123 10 min later (concurrent)
[5] = RT9Gy, Rho-123 24 hr later (sequential)
[6] = sham RT, Rho-123 0.2 mg/kg i.v., rats

AUC(0-t) ([1]; RT2Gy, Rho-123 0.2 mg/kg i.v. 10 min later (concurrent)): 3170 ng·h/mL
AUC(0-t) ([1]; RT2Gy, Rho-123 0.2 mg/kg i.v. 24 hr later (sequential)): 1920 ng·h/mL
Cmax [1, 2]: 3560 ± 1930 ng/mL
MRT [1, 2]: 66 min
Tmax [1, 2]: 11 min
clearance [1, 2]: 0.92 ± 0.23 mL/min/kg
half-life [1, 2]: 46 ± 13 min
Cmax [1, 3]: 2240 ± 570 ng/mL
MRT [1, 3]: 47 min
Tmax [1, 3]: 9 min
clearance [1, 3]: 1.73 ± 0.61 mL/min/kg
half-life [1, 3]: 32 ± 8 min
AUC(0-t) ([1]; RT9Gy, Rho-123 0.2 mg/kg i.v. 10 min later (concurrent)): 2710 ng·h/mL
AUC(0-t) ([1]; RT9Gy, Rho-123 0.2 mg/kg i.v. 24 hr later (sequential)): 1660 ng·h/mL
Cmax [1, 4]: 2860 ± 830 ng/mL
MRT [1, 4]: 66 min
Tmax [1, 4]: 11 min
clearance [1, 4]: 1.07 ± 0.33 mL/min/kg
half-life [1, 4]: 43 ± 6 min
Cmax [1, 5]: 2070 ± 750 ng/mL
MRT [1, 5]: 50 min
Tmax [1, 5]: 13 min
clearance [1, 5]: 1.91 ± 0.56 mL/min/kg
half-life [1, 5]: 34 ± 9 min
AUC(0-t) [1, 6]: 1880 ng·h/mL
Cmax [1, 6]: 2010 ± 600 ng/mL
MRT [1, 6]: 61 min
Tmax [1, 6]: 14 min
clearance [1, 6]: 1.56 ± 0.3 mL/min/kg
half-life [1, 6]: 42 ± 13 min
Increase in AUC of biliary excretion ([1]; concurrent RT2Gy compared to sham group): 69.0%
Increase in AUC of biliary excretion ([1]; concurrent RT9Gy compared to sham group): 44.2%
Decrease in AUC of biliary excretion ([1]; sequential RT2Gy compared to concurrent RT2Gy): 39.5%
Decrease in AUC of biliary excretion ([1]; sequential RT9Gy compared to concurrent RT9Gy): 38.6%
Compound: COC(=O)c1ccccc1-c1c2ccc(=N)cc-2oc2cc(N)ccc12 [Rho-123, rhodamine 123]
Rho-123 intensity (P-gp; concurrent RT2Gy): 99.2 ± 2.2
Rho-123 intensity (P-gp; concurrent RT9Gy): 93.6 ± 3.4
Rho-123 intensity (P-gp; sequential RT2Gy): 103.8 ± 0.6
Rho-123 intensity (P-gp; sequential RT9Gy): 118.4 ± 0.9
